Laboratory results as given in ChEMBL document CHEMBL1149550, “5(Z)-benzylidene-1,2-dihydro-9-hydroxy-10-methoxy-2,2,4-trimethyl-5H-1-aza-6-oxa-chrysenes as non-steroidal glucocorticoid receptor modulators” (Bioorg Med Chem Lett, 2007).
The source made the active and inactive calls. The calls are words filed in the database; no cut-off is given here.

Key:
Progesterone receptor = target: T1, Progesterone receptor (Homo sapiens, UniProt P06401); experiment: Binding affinity at PR
T1 sequence (P06401 whole entry): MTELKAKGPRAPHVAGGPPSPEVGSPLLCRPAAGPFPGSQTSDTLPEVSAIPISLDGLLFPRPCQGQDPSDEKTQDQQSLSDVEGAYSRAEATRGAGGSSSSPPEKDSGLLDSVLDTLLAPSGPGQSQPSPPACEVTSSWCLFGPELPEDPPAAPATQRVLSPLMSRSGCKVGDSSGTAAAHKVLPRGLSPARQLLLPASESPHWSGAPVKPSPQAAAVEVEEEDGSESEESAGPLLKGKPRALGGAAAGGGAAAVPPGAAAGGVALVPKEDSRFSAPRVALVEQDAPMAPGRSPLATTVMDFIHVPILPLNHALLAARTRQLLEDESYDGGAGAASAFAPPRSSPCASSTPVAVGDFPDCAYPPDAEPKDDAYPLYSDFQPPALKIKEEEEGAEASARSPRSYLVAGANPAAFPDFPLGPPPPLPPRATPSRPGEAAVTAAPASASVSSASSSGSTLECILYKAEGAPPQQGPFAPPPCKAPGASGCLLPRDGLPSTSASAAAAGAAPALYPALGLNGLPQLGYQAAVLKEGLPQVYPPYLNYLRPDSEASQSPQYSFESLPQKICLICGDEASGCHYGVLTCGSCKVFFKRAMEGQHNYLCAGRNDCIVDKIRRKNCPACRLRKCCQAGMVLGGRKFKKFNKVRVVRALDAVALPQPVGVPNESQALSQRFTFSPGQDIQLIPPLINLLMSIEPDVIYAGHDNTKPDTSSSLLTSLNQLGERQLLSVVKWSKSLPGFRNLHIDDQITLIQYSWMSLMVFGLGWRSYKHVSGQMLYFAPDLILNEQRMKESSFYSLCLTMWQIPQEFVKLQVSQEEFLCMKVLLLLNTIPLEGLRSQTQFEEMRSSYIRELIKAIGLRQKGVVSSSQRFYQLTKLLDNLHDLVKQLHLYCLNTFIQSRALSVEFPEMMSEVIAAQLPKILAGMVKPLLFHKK

Androgen receptor = target: T2, Androgen receptor (Homo sapiens, UniProt P10275); experiment: Binding affinity at AR
T2 sequence (P10275 whole entry): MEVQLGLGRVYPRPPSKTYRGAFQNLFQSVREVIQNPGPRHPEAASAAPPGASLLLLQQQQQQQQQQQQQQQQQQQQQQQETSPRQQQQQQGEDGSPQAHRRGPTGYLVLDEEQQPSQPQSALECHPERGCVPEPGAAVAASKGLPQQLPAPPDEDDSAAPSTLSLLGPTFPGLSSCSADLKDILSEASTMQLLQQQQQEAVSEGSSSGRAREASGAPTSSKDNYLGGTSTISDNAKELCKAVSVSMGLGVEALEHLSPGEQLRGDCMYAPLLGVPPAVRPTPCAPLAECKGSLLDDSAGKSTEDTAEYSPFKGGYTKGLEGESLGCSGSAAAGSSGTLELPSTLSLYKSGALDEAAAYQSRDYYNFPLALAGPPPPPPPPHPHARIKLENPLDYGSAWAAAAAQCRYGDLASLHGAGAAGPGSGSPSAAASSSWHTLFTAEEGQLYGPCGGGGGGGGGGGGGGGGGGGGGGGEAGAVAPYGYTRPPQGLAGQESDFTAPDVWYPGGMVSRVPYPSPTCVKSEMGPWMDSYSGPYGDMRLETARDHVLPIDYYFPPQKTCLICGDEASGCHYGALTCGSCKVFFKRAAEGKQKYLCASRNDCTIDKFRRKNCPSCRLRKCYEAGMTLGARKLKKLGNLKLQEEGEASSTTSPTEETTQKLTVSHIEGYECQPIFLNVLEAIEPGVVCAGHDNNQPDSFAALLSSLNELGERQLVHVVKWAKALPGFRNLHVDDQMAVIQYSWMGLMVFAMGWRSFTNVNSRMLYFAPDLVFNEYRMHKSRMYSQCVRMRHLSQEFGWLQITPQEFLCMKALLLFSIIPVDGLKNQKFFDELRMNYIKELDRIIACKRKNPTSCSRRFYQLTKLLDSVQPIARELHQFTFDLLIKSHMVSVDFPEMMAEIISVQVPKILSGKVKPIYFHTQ

[1] = target: T3, Mineralocorticoid receptor (Homo sapiens, UniProt P08235); experiment: Binding affinity at MR
T3 sequence (P08235 whole entry): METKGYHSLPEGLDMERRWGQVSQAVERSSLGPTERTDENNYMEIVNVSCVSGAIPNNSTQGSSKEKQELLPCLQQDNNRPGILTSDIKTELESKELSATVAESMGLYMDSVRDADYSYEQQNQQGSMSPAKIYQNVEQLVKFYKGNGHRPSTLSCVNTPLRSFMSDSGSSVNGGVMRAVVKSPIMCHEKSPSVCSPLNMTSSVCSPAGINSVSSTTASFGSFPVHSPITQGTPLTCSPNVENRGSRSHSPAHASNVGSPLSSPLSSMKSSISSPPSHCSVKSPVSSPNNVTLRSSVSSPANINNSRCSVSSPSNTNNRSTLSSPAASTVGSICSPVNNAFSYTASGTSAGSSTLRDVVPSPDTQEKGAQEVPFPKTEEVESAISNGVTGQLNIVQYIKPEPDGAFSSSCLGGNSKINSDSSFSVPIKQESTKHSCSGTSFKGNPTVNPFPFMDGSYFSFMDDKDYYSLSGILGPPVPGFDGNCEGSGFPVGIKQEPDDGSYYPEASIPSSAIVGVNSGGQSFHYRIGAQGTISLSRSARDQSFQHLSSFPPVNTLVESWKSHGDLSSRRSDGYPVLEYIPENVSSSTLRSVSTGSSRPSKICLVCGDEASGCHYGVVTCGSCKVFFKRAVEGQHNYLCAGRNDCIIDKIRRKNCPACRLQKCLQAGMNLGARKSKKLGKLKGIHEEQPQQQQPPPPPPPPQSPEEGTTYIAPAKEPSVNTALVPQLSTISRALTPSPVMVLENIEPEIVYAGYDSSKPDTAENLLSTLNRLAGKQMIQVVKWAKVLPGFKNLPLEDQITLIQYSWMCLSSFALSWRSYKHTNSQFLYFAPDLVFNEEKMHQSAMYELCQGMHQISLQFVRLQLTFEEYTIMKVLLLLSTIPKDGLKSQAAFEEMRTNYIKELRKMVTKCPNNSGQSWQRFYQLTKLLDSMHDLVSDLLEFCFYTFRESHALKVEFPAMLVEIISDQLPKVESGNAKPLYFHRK

Glucocorticoid receptor [2] = target: T4, Glucocorticoid receptor (Homo sapiens, UniProt P04150); assay type: functional
T4 sequence (P04150 whole entry): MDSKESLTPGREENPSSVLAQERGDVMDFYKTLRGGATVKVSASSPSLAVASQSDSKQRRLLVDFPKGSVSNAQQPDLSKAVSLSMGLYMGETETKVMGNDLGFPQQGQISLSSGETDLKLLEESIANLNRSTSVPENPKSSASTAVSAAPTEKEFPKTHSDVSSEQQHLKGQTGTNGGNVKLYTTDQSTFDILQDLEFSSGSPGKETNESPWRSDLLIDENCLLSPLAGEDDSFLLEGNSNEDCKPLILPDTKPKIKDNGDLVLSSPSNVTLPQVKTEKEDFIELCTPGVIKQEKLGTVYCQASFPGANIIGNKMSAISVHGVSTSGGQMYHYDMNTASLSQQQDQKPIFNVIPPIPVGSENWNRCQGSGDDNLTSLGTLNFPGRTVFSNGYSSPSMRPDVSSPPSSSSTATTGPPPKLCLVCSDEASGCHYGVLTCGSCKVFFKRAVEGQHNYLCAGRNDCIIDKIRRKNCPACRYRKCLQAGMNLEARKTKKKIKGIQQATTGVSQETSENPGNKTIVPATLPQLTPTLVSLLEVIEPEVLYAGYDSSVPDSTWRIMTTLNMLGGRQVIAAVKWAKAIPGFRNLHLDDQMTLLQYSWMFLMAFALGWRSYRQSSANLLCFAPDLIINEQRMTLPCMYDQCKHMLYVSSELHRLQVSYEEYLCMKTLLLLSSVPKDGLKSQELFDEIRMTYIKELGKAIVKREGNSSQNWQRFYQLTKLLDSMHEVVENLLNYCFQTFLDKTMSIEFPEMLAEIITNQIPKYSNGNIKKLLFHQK
Description: Agonist activity at GR by GRE activation assay

Glucocorticoid receptor [3] = target: T4, Glucocorticoid receptor; assay type: functional; remark: listed apart in the source
Description: Antagonist activity at GR assessed as inhibition of dexamethasone-induced GRE activation

Glucocorticoid receptor [4] = target: T4, Glucocorticoid receptor; assay type: functional; remark: listed apart in the source
Description: Activity at GR assessed as repression of TNFalpha and IL 1-beta induced E-selectin response

Glucocorticoid receptor [5] = target: T4, Glucocorticoid receptor
Description: Displacement of radiolabeled Dexamethasone from glucocorticoid receptor

Rattus norvegicus = experiment: Antiinflammatory activity against carrageenan-induced paw edema in rat assessed as paw volume at 30 mg/kg after 3 hrs; assay type: functional, organism-based; set-up: dose 30 mg/kg

| SMILES | Ki (Progesterone receptor) | Ki (Androgen receptor) | Ki [1] | EC50 (Glucocorticoid receptor [2]) | IC50 (Glucocorticoid receptor [3]) | IC50 (Glucocorticoid receptor [4]) | Ki (Glucocorticoid receptor [5]) | Activity (Rattus norvegicus) |
| --- | --- | --- | --- | --- | --- | --- | --- | --- |
| COCOCc1cc(F)ccc1/C=C1\Oc2ccc(O)c(OC)c2-c2ccc3c(c21)C(C)=CC(C)(C)N3 | 840 nM | 630 nM | 430 nM | – | – | – | – | – |
| COc1c(O)ccc2c1-c1ccc3c(c1/C(=C/c1cccc(O)c1)O2)C(C)=CC(C)(C)N3 | 750 nM | 910 nM | 290 nM | 1.5 nM | 4.7 nM | 1.1 nM | 1.4 nM | – |
| COc1c(O)ccc2c1-c1ccc3c(c1/C(=C/c1ccc(F)cc1CO)O2)C(C)=CC(C)(C)N3 | 970 nM | 700 nM | 1100 nM | – | – | – | – | – |
| COc1c(O)ccc2c1-c1ccc3c(c1/C(=C/c1cc(F)cc4c1OCOC4)O2)C(C)=CC(C)(C)N3 | – | – | – | – | – | – | – | Active |
